Earlier results on 2 molecules are cited in patent publication US20180161366A1, “METHODS OF OBTAINING MONONUCLEAR BLOOD CELLS AND USES THEREOF” (Biokine Therapeutics Ltd., priority 2015, published 2018).

The conditions of this series: from DiPersio Blood 2008; cited from earlier work.

Turning to `c1cc(CN2CCCNCCNCCCNCC2)ccc1CN1CCCNCCNCCCNCC1` [AMD3100], the “B cells (CD19), Median (range)” value is given as 1.0 (0.2-2.4) × 10^8/Kg; the “Cytotoxic T cells (CD3+CD8+), Median (range)” value is 1.3 (0.4-3.4) × 10^8/Kg; the “HSPC (CD34+), Median (range)” value is recorded as 2.9 (1.2-6.3) × 10^6/Kg; the “NK cells (CD3−CD56+), Median (range)” value is 0.3 (0.1-1.0) × 10^8/Kg. Further, the “T cells (CD3+), Median (range)” value was 4.6 (1.5-7.8) × 10^8/Kg and the “T helper cells (CD3+CD4+), Median (range)” value is reported as 3.2 (1-5.7) × 10^8/Kg.

B1: G-CSF: mobilization agent (protein, UniProt P09919 31-207, looked up)
Granulocyte …: TPLGPASSLPQSFLLKCLEQVRKIQGDGAALQEKLVSECATYKLCHPEELVLLGHSLGIPWAPLSSCPSQALQLAGCLSQLHSGLFLYQGLLQALEGISPELGPTLDTLQLDVADFATTIWQQMEELGMAPALQPTQGAMPAFASAFQRRAGGVLVASHLQSFLEVSYRVLRHLAQP
Take B1: the “Cytotoxic T cells (CD3+CD8+), Median (range)” value is 0.4 (0.4-3.4) × 10^8/Kg; the “HSPC (CD34+), Median (range)” value is 4.2 (2.5-18) × 10^6/Kg; the “NK cells (CD3−CD56+), Median (range)” value was 0.2 (0.2-0.5) × 10^8/Kg; the “T cells (CD3+), Median (range)” value is 1.3 (1.2-6.8) × 10^8/Kg. In addition, the “T helper cells (CD3+CD4+), Median (range)” value was 1.1 (0.7-3.2) × 10^8/Kg.
